The source of these data is ChEMBL document CHEMBL1126103, “3'-C-branched 2'-deoxy-5-methyluridines: synthesis, enzyme inhibition, and antiviral properties” (J Med Chem, 1992).

Broadly, the pEC50 is the negative decadic logarithm of the EC50, by convention in mol/L. The term CC50 denotes the concentration giving 50% cytotoxicity. A higher CC50 goes with lower toxicity to the cells.

The subject of experiment [1] is MT4. In words: Effective concentration required to inhibit HIV-1-induced cytopathicity in MT-4 cells. Particulars: Homo sapiens. It is filed as functional, cell-based.
Experiment [2] concerns MT4. As to the kind of experiment: Cytotoxic concentration required to reduce MT-4 cells viability by 50%. Particulars: Homo sapiens. It is filed as functional.

SMILES strings stand for the structures. pEC50: −log10 of the molar value. Some results are limits rather than exact numbers.

In experiment [1], `Cc1cn([C@H]2C[C@@](C)(O)[C@@H](CO)O2)c(=O)[nH]c1=O` showed a pEC50 of under 3.30. For the same molecule, the CC50 in experiment [2] is over 500 µM.

The molecule `Cc1cn([C@H]2C[C@](C)(O)[C@@H](COP(=O)(O)O)O2)c(=O)[nH]c1=O` gave a negative-log EC50 (pEC50) in experiment [1] of 4.14. In addition, the CC50 in experiment [2] was over 500 µM.

`Cc1cn([C@H]2C[C@@](C)(O)[C@@H](COP(=O)(O)O)O2)c(=O)[nH]c1=O` had a negative-log EC50 (pEC50) in experiment [1] of 3.61. Moreover, the CC50 in experiment [2] is over 500 µM.

As for `Cc1cn([C@H]2C[C@](C)(O)[C@@H](CO)O2)c(=O)[nH]c1=O`, in experiment [1], the pEC50 was under 3.30. The molecule also showed a CC50 in experiment [2] of over 500 µM.
